Test results published in patent US20060142621A1, “Bismuth dithiocarbamate compounds and uses thereof” (priority 2003, published 2006).

Assays:
[1] = system: OVCAR human ovarian cancer; experiment: in vivo anti-tumour activity, OVCAR xenograft in nude Balb/C mice; parameters: species or system mouse; conditions: nude Balb/C mice with OVCAR, 0.14 mg Bi/kg
Procedure: Female BALB/C-nude mice, obtained from the Animal Resources Centre in Queensland, Australia were used for this experiment. […] Throughout this experiment, the mice were housed in filtered air laminar-flow cabinets and were manipulated following standard aseptic procedures.
Human ovarian cancer (OVCAR) cells were provided by Dr Ho (Department of Pharmacy, National University of Singapore). OVCAR cells were grown in RPMI-1640 medium with 10% foetal bovine serum and 5 mM L-glutamine.
A suspension of OVCAR cells (10^7 cells) were injected subcutaneously (s.c.) in the flank of each animal (0.1 ml per mice). When the volume of the tumour reached approximately 50-100 mm^3, the mice were randomly divided into 2 groups, the test group and the control group, comprising 6 mice in each group.
The compound was given subcutaneously to mice in amounts of 0.1 ml/20 g three times every two days in the first week. The dose applied was at the level of the MTD, i.e. 0.14 mg Bi/kg mouse. […]
In xenografts transplanted subcutaneously, tumour growth was monitored and the volume of the tumour was determined by measuring its diameter with a vernier calliper every 2-4 days. The Relative Tumour Volume (RTV=tumour volume on day×/tumour volume on day 1) was calculated using the formula width^2×length×0.52.

BALB/c mice = experiment: Maximum Tolerated Dose (MTD) / lethal dose determination in Balb/C mouse model; type: in vivo
Procedure: The MTD of Bi(S2CNEt2)3 was determined in the following manner. Male and female BALB/c mice obtained from the Laboratory Animal Centre, (National University of Singapore), were used for the study. The mice used were about 4-5 weeks old with a mean body weight of 20±2 g. The 5 mice per cage were kept at room temperature and under standard light conditions. They received standard mouse chow and water. […] The mice in the control group were administered with DMSO only. […] An initial concentration of 20 mg Bi/kg was used for a small sampling population of two mice, one of each gender. If both mice died, the complex concentration was decreased, and the experiment was repeated for another two mice. If one of the mice died but the other survived, the experiment was repeated for a larger sampling population of ten mice, five of each gender, for the same complex concentration. The observation period lasted 14 days. The objective of the experiment was to plot a graph of percent of live mice (number of survivors/ten×100%) against compound dosage (in mg Bi/kg). This procedure enabled the determination of the Maximum Tolerated Dose (at MTD 90% survival of mice).

[2] = i.p. in DMSO, 14 days observation

bismuth (III) tris(N,N-diethyldithiocarbamate) [Bi(S2CNEt2)3]
anti-tumour activity [1]: significant anti-tumour activity
MTD (BALB/c mice; MTD = 90% survival of mice): 0.14 mg Bi/kg mouse
LD10 (BALB/c mice; [2]): 0.14 mg/kg
LD50 (BALB/c mice; [2]): 3.57 mg/kg
LD90 (BALB/c mice; [2]): 7 mg/kg
